Test results from ChEMBL document CHEMBL1145711, “Dolabelides C and D, Cytotoxic Macrolides Isolated from the Sea Hare Dolabella auricularia” (J Nat Prod, 1997).
Values after ≈ are worked out from the molar mass of the structure shown.

Assay: Cytotoxicity against human HeLaS3 cells
Format: functional, cell-based
Conditions: HeLa S3

Compound | IC50
CCC[C@H](C/C(C)=C/[C@H]1OC(=O)[C@@H](C)[C@@H](O)[C@H](C)CC[C@H](O)C[C@@H](OC(C)=O)C[C@@H](O)CC/C(C)=C/CCC[C@@H](O)C[C@H](O)[C@@H]1C)OC(C)=O [DOLABELIDE D] | 1.5 µg/mL (≈ 2.1 µM)
CCC[C@H](C/C(C)=C/[C@H]1OC(=O)[C@@H](C)[C@@H](O)[C@H](C)CC[C@H](OC(C)=O)C[C@@H](OC(C)=O)C[C@@H](OC(C)=O)CC/C(C)=C/CCC[C@@H](O)C[C@H](O)[C@@H]1C)OC(C)=O [DOLABELIDE C] | 1.9 µg/mL (≈ 2.38 µM)
